Reference: patent EP4538272B1, “CRYSTAL OF N-(BENZOYL)-PHE[…], AND PHARMACEUTICAL COMPOSITION THEREOF, AND PREPARATION METHOD THEREFOR AND USE THEREOF” (Hangzhou Apeloa Medicine Research Institute Co., Ltd., priority 2022, dated 2023)
Values after ≈ are worked out from the molar mass of the structure shown.

Columns and labels:
Assay type in all cases: physicochemical
[1] = Solid-state stability test (high temperature, high humidity, light exposure, acceleration); purity by HPLC, crystal form by XRPD; settings: for change in the purity and form: 15 days under 60°C, 92.5% RH, 4500lux and 40°C/75% RH, respectively
Description: (§1) Put an appropriate amount of the test sample (the compound shown by Formula (I) in the form of Crystal Form A) on a watch glass, spread it into a thin layer ≤ 5mm thick, and place it under a high temperature of 60°C, a high humidity of 92.5% RH, a light exposure of 4500lux and an acceleration condition of 40°C/75% RH for 15 days, respectively. Sample on the 7th and 15th day to observe the color change of the samples. Analyze the sample purity and crystal form through HPLC and XPRD detection, respectively. Table 5. Test results of Crystal Form A and amorphous stability
as §1, with “(II)” for “(I)”, “B)” for “A)”, “the” for “the 7th and”, “sample.” for “samples.”, “8.” for “5.”, “B” for “A and amorphous”

[2] = Solubility test in biological media (FaSSIF, FeSSIF), HPLC detection; settings: for solubility at 0.5 h / solubility at 2 h / solubility at 24 h: 37°C; for solubility (result in words): in FeSSIF and FaSSIF
Description: (§2) Add 20mg of the sample (the compound shown by Formula (I) in the form of Crystal Form A) into a 10ml conical tube, and then add 4ml of water or biological medium (FeSSIF (pH 5.0) or FaSSIF (pH 6.5)), respectively. Shake the solution at 37°C for 24h in a constant temperature bath at 1000rpm, and take samples at 0.5h, 2h and 24h, respectively. Filter the samples through an aquo-system microporous filter membrane and discard the initial filtrate to obtain the test solution.
Perform an HPLC detection for the test solution (20µL), and calculate the sample concentration according to the standard curve method. Table 3. Solubility test results of Crystal Form A in different media
as §2, with “(II)” for “(I)”, “B)” for “A)”
Perform an HPLC detection for the test solution (20µL), and calculate the sample concentration according to the standard curve method. Table 6. Solubility test results of Crystal Form B in different media

[3] = Hygroscopicity test with dynamic moisture absorber (DVS); settings: for Weight gain at 80% RH: 25°C; for hygroscopicity (according to the definition criteria for hygroscopic weight gain): based on weight gain at 80% RH
Description: The hygroscopicity results in the present invention can be measured using a DVS Intrinsic dynamic moisture and gas absorber from Surface Measurement Systems of the UK. Humidity variation: 50%-95%-0%-50%. The humidity change for each gradient within0% ~ 90% is 10%. Airflow: 200ml/min; temperature: 25°C; testing point: one testing point taken every 10% increase in humidity.
Take an appropriate amount of the test sample (the compound shown by Formula (I) in the form of Crystal Form A) to test its hygroscopicity with a dynamic moisture absorber. Table 4. Hygroscopicity test results for Crystal Form A of the present invention
Take an appropriate amount of the test sample (the compound shown by Formula (II) in the form of Crystal Form B) to test its hygroscopicity with a dynamic moisture absorber. Table 7. Hygroscopicity test results for Crystal Form B of the present invention

SMILES	purity ([1]; Acceleration 40°C/75%RH, 15d)	purity ([1]; High humidity 92.5%RH, 15d)	purity ([1]; High temperature 60°C, 15d)	purity ([1]; Light exposure 4500lux, 15d)	solubility (result in words) [2]	Weight gain at 80% RH [3]	hygroscopicity (according to the definition criteria for hygroscopic weight gain) [3]	change in the purity and form [1]	Form (crystal form by XRPD) ([1]; Acceleration 40°C/75%RH, 15d)	Form (crystal form by XRPD) ([1]; High humidity 92.5%RH, 15d)	Form (crystal form by XRPD) ([1]; High temperature 60°C, 15d)	Form (crystal form by XRPD) ([1]; Light exposure 4500lux, 15d)	further results
O=C(N[C@@H](Cc1ccc(N2C(=O)C3(CC3)c3ccc(F)c(F)c32)cc1)C(=O)O)c1c(F)cccc1Cl [Amorphous, (S)-2-(2-chloro-6-fluorobenzoyl amido)-3-(4-(6',7'-difluoro-2'-oxospiro [cyclopropane-1,3'-indoline]-1'-yl)phenyl) propionic acid]	89.70%	93.06%	91.89%	94.91%	–	–	–	–	–	–	–	–	–
O=C(N[C@@H](Cc1ccc(N2C(=O)C3(CC3)c3ccc(F)c(F)c32)cc1)C(=O)O)c1c(F)cccc1Cl [Crystal Form B, (S)-2-(2-chloro-6-fluorobenzoyl amido)-3-(4-(6',7'-difluoro-2'-oxospiro [cyclopropane-1,3'-indoline]-1'-yl)phenyl) propionic acid]	–	–	–	–	good solubility	0.71%	a slight hygroscopicity	no significant change	Unchanged	Unchanged	Unchanged	Unchanged	solubility at 0.5 h ([2]; FaSSIF (pH 6.5)): 3190 µg/mL (≈ 6.19 mM); solubility at 2 h ([2]; FaSSIF (pH 6.5)): 2960 µg/mL (≈ 5.75 mM); solubility at 24 h ([2]; FaSSIF (pH 6.5)): 2790 µg/mL (≈ 5.42 mM); solubility at 0.5 h ([2]; FeSSIF (pH 5.0)): 869 µg/mL (≈ 1.69 mM); solubility at 2 h ([2]; FeSSIF (pH 5.0)): 815 µg/mL (≈ 1.58 mM); solubility at 24 h ([2]; FeSSIF (pH 5.0)): 734 µg/mL (≈ 1.43 mM); solubility (result in words) ([2]; listed as Crystal form B): relatively good; purity ([1]; Acceleration 40°C/75%RH, 0d): 99.79%; purity ([1]; High humidity 92.5%RH, 0d): 99.79%; purity ([1]; High temperature 60°C, 0d): 99.79%; purity ([1]; Light exposure 4500lux, 0d): 99.79%
O=C(N[C@@H](Cc1ccc(N2C(=O)C3(CC3)c3ccc(F)c(F)c32)cc1)C(=O)O)c1c(F)cccc1Cl [Crystal Form A, (S)-2-(2-chloro-6-fluorobenzoyl amido)-3-(4-(6',7'-difluoro-2'-oxospiro [cyclopropane-1,3'-indoline]-1'-yl)phenyl) propionic acid]	99.4%	99.3%	99.4%	99.2%	good solubility	0.09%	no or almost no hygroscopicity	no significant change	Unchanged	Unchanged	Unchanged	Unchanged	solubility (result in words) ([2]; listed as Crystal form A): relatively good; Form (crystal form by XRPD) ([1]; Acceleration 40°C/75%RH, 7d): Unchanged; purity ([1]; Acceleration 40°C/75%RH, 7d): 99.4%; Form (crystal form by XRPD) ([1]; High humidity 92.5%RH, 7d): Unchanged; purity ([1]; High humidity 92.5%RH, 7d): 99.3%; Form (crystal form by XRPD) ([1]; High temperature 60°C, 7d): Unchanged; purity ([1]; High temperature 60°C, 7d): 99.4%; Form (crystal form by XRPD) ([1]; Light exposure 4500lux, 7d): Unchanged; purity ([1]; Light exposure 4500lux, 7d): 99.2%
